Measured values from ChEMBL document CHEMBL1201862, “PubChem BioAssay data set” (2004).
Active and inactive are the calls of the source.

Tests used:
[1] = biological target: T1, Protein skinhead-1 (Caenorhabditis elegans, UniProt P34707); format: functional
T1 sequence (P34707 whole entry): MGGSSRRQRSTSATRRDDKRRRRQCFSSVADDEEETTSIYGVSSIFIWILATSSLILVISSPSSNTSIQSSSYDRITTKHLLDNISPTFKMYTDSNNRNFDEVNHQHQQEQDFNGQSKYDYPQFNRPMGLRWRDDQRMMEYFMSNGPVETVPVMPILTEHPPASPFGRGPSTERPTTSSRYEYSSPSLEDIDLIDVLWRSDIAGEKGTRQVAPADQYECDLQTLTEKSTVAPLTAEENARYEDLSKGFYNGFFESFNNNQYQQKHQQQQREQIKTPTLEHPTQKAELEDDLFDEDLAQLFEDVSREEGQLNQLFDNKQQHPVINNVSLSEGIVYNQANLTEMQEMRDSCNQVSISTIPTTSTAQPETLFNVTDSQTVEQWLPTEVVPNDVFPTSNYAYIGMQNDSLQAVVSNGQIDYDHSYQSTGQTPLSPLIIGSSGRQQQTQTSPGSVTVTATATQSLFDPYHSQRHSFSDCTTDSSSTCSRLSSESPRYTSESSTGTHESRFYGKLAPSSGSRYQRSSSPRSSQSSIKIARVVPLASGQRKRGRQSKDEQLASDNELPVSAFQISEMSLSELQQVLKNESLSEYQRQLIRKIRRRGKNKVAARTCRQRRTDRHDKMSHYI

[2] = HepG2 cell cytotoxicity, dose response, cytotoxicity control for Shn3 inhibitor project, CellTiter-Glo, cherry-picked (AID 624134); format: functional, cell-based
[3] = Shn3 3'UTR reporter inhibitors, dose response, cell-based, Clone20 osteoblasts, firefly luciferase, cherry-picked (AID 624132); format: functional;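 further: firefly luciferase luminescence from reporter carrying the Shn3 3'UTR in osteoblasts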
[4] = biological target: Cytochrome P450 2C9 (Homo sapiens, UniProt P11712)
[5] = control 3'UTR Renilla luciferase suppression, dose response, counter-screen for Shn3 inhibitor project, cell-based, Clone20-Shn3RL, cherry-picked (AID 624133); format: functional
[6] = biological target: Cytochrome P450 3A4 (Homo sapiens, UniProt P08684);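 further: CYP3A4 tested as one member of a cytochrome P450 panel screen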
[7] = C. albicans growth with fluconazole, confirmation, fluorescence, retest (AID 2467); format: functional, cell-based
[8] = NIH-3T3 fibroblast cytotoxicity, dose response, cytotoxicity control, cell-based, fluorescence, Alamar Blue, secondary assay (AID 2327); format: functional;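 further: NIH-3T3 mouse fibroblasts cultured with fluconazole at 8 µg/mL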
[9] = biological target: T2, RNA-binding protein pos-1 (Caenorhabditis elegans, UniProt G5EF15); test: inhibitors of POS-1/mex-3 RNA binding, dose response, biochemical, fluorescence polarization (AID 1964);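 further: purified POS-1 fused to maltose binding protein made in E. coli; potency of compounds blocking POS-1 binding to fluorescent RNA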
T2 sequence (G5EF15 whole entry): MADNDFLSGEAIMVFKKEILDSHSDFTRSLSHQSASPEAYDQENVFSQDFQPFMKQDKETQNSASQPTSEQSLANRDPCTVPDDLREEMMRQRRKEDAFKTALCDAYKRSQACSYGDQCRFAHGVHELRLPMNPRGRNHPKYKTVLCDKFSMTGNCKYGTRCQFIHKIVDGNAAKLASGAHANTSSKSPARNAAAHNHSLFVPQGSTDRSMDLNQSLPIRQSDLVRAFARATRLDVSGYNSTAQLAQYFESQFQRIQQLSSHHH

[10] = biological target: T3, Zinc finger protein mex-5 (Caenorhabditis elegans, UniProt Q9XUB2); test: MEX-5/TCR-2 RNA interaction inhibitors, dose response, biochemical, C. elegans, fluorescence polarization (AID 1960)
T3 sequence (Q9XUB2 whole entry): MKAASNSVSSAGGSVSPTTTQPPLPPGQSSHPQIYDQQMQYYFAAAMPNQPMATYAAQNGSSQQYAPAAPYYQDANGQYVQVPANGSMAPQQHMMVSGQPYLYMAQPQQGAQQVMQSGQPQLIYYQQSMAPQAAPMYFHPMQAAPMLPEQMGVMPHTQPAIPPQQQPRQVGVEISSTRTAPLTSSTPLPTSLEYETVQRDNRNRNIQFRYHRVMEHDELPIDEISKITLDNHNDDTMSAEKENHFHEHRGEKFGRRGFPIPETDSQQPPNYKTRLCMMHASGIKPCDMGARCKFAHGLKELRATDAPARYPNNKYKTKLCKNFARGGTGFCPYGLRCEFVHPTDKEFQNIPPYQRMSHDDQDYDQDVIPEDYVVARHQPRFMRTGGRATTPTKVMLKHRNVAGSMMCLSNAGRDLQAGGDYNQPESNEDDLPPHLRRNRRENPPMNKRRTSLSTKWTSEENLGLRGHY

[11] = Luminescence Cell-Based Dose Retest to Confirm Inhibitors of Cancer Stem Cells. [Related pubchem assays (depositor defined):AID2717, AID2721]; format: functional; conditions: Homo sapiens
[12] = microbe, parasite or virus in culture; format: functional; conditions: Mycobacterium tuberculosis
[13] = tested on: INS1; test: beta cell apoptosis inhibitors, cytokine rescue, dose response, luminescence, retest (AID 449756); format: functional, cell-based; conditions: Rattus norvegicus;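 further: cell death triggered by IL-1 beta plus TNF-alpha plus IFN-gamma mixture; protective hits raise ATP signal compared with cytokine alone wells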
[14] = biological target: T4, Cytochrome P450 1A2 (Homo sapiens, UniProt P05177);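 further: PubChem cytochrome P450 panel assay, CYP1A2 panel member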
T4 sequence (P05177 whole entry): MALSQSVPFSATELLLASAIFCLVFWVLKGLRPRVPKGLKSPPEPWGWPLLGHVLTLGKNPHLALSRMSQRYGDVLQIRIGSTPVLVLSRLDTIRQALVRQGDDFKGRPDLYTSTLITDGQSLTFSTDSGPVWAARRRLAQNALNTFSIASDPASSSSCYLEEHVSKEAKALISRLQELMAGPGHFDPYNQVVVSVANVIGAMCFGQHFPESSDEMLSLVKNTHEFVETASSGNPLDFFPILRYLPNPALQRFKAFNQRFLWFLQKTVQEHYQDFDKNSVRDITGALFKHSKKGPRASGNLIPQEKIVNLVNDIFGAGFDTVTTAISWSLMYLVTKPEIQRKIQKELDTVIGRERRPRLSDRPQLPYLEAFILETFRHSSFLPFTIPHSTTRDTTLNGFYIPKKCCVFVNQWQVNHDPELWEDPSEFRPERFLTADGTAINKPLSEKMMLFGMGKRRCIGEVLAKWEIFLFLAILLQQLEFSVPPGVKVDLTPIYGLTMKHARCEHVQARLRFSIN

[15] = biological target: Cytochrome P450 2D6 (Homo sapiens, UniProt P10635);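 further: CYP2D6 member of a cytochrome P450 panel assay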
Chain of Cytochrome P450 2D6 (P10635 whole entry): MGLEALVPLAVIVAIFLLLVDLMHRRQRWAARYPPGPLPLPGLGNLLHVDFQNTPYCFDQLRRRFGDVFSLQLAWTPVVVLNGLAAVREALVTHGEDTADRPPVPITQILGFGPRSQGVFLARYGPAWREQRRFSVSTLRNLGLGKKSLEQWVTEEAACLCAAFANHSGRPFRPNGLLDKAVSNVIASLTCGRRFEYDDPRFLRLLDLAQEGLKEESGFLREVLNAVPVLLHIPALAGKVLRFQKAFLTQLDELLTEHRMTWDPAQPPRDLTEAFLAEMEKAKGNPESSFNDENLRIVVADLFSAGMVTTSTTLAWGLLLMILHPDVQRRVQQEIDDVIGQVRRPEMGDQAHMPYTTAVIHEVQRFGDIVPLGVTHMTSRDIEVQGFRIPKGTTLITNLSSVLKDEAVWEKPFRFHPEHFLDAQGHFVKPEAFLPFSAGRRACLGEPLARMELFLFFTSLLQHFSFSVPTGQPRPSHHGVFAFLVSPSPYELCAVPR

Chain of Cytochrome P450 2C9 (P11712 whole entry): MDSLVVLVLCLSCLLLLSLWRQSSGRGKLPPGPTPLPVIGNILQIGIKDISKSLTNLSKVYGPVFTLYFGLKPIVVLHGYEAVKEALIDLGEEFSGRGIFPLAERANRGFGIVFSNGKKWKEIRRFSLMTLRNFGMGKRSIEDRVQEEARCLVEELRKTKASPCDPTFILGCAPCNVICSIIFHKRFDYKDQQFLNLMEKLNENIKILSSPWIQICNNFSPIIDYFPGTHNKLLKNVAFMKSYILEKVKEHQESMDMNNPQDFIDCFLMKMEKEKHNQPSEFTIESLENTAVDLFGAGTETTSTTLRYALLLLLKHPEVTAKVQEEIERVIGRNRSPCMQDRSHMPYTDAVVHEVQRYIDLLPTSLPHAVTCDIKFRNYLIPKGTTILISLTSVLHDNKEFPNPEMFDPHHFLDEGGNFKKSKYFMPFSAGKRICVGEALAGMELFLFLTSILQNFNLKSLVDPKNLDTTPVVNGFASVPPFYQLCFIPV
Chain of Cytochrome P450 3A4 (P08684 whole entry): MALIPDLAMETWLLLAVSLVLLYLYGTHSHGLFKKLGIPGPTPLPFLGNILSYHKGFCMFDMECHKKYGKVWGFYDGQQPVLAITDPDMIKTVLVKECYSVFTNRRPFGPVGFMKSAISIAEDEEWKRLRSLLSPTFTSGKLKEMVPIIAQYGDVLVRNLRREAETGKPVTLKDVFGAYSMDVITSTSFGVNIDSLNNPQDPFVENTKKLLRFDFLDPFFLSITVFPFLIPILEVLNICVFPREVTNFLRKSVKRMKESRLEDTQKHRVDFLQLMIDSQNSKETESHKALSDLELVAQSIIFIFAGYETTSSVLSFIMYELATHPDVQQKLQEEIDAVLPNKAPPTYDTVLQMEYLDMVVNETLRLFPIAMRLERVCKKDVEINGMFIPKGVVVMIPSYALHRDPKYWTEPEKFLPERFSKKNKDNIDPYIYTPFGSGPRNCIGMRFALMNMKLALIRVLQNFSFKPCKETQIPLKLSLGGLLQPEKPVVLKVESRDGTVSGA

## Cc1ccc(C2=NN(S(C)(=O)=O)C(c3ccc4c(c3)OCO4)C2)cc1 (stereo not given)
[1]
  IC50: > 100 µM (inactive)

## CCN(CC)C(=O)C1CCN(S(=O)(=O)c2ccc3oc4ccccc4c3c2)CC1
[2]
  AC50: > 70 µM (inactive)
[3]
  AC50: 3.96 µM (active)
[4]
  AC50: inconclusive
[5]
  AC50: 10.1 µM (active)
[6]
  AC50: 3.98 µM (inconclusive)

## CC1(C)CC(=O)C=C(Nc2ccc([N+](=O)[O-])cc2)C1
[7]
  EC50: 2.93 µM (active)
[8]
  EC50: > 160 µM (inactive)

## COc1cccc(C(=O)NCC(=O)NNc2ncnc(N)c2[N+](=O)[O-])c1
[9]
  EC50: > 300 µM (inconclusive)
[10]
  EC50: < 0.06 µM (inconclusive)

## Cc1oncc1-c1csc(-c2ccccc2Cl)n1
[1]
  IC50: > 100 µM (inactive)

## O=C(NNC(=O)c1cnccn1)c1ccc(Cl)cc1
[9]
  EC50: 95.9 µM (active)
[10]
  EC50: 12.4 µM (active)

## Cc1cc2cc(CNC(=O)CCC(=O)O)ccc2n1C
[1]
  IC50: > 100 µM (inactive)

## Cc1ccc(-c2c(C)nn3c(N4CCOCC4)cc(C)nc23)cc1
[1]
  IC50: > 100 µM (inactive)

## O=C(NCc1ccco1)c1sc2cc(F)ccc2c1Cl
[1]
  IC50: > 100 µM (inactive)

## CC(C)Cn1c(N)c(C(=O)CSc2nnnn2C)c(=O)n(C)c1=O
[1]
  IC50: > 100 µM (inactive)

## CN(C)c1ccc(-c2cc(O)c3ncccc3c2)cc1
[11]
  AC50: 7.11 µM (active)
[12]
  CC50: 23.2 µM (active)
[13]
  AC50: 5.16 µM (active)

## CC(C)(C)C1CCc2sc(-c3nnc(CCl)o3)cc2C1 (stereo not given)
[12]
  CC50: 21 µM (active)

## CCCNC(=O)COC(=O)C1CCN(S(=O)(=O)c2ccc3c(c2)OCCO3)CC1
[1]
  IC50: > 100 µM (inactive)

## O=C(CCN1C(=O)/C(=C\C=C\c2ccccc2)SC1=S)Nc1ccc(C(=O)O)cc1
[9]
  EC50: > 300 µM (not active)
[10]
  EC50: 38.7 µM (active)

## O=C(NCc1ccccn1)C1CC(c2ccc(Cl)c(Cl)c2)=NO1 (stereo not given)
[4]
  AC50: inconclusive
[14]
  AC50: 4.47 µM (inconclusive)

## CCN(CCO)C[C@H]1CCC[C@H]2CCCC[C@@H]21
[15]
  AC50: 6.31 µM (inconclusive)

## O=C(CSc1nc2cc(Br)c[nH]c-2n1)Nc1ccc2c(c1)OCO2
[12]
  CC50: > 40 µM (active)

## Nc1c(NCCC2=CCCCC2)c(=O)[nH]c(=O)n1Cc1ccccc1
[9]
  EC50: 23.2 µM (active)
[10]
  EC50: 13.9 µM (active)
